The values below come from patent US6552088B2, “Biphenyl derivatives” (Hoffmann-La Roche Inc., priority 1999, dated 2003).

In one series the target is T1, human NK-1 receptor (Homo sapiens, UniProt P25103).
T1 construct: expressed in transfected cells; host or cells: CHO cells infected using the Semliki virus expression system; membrane suspension
The experiment in a line: Affinity for the NK-1 receptor, [3H] substance P displacement binding assay. The note with it: human NK-1 receptors in CHO cells (Semliki virus expression system); [3H] substance P 0.6 nM; 60 min at room temperature; read-out: affinity to the NK-1 receptor, given as pKi (converted). On the procedure: The affinity of test compounds for the NK-1 receptor was evaluated at human NK-1 receptors in CHO cells infected with the human NK-1 receptor (using the Semliki virus expression system) and radiolabelled with [3H] substance P (final concentration 0.6 nM). Binding assays were performed in HEPES buffer (50 mM, pH 7.4) containing BSA (0.04%) leupeptin (8 μg/ml), MnCl2 (3 mM) and phosphoramidon (2 μM). Binding assays consisted of 250 μl of membrane suspension (1.25×10^5 cells/assay tube), […] of buffer of displacing agent and 125 μl of [3H] substance P. Displacement curves were determined with at least seven concentrations of the compound. The assay tubes were incubated for 60 min at room temperature after which time the tube contents were rapidly filtered under vacuum through GF/C filters presoaked for 60 min with PEI (0.3%) with 2×2 ml washed of HEPES buffer (50 mM, pH 7.4). The radioactivity retained on the filters was measured by scintillation counting. All assays were performed in triplicate in at least 2 separate experiments.

T1 sequence (P25103 whole entry): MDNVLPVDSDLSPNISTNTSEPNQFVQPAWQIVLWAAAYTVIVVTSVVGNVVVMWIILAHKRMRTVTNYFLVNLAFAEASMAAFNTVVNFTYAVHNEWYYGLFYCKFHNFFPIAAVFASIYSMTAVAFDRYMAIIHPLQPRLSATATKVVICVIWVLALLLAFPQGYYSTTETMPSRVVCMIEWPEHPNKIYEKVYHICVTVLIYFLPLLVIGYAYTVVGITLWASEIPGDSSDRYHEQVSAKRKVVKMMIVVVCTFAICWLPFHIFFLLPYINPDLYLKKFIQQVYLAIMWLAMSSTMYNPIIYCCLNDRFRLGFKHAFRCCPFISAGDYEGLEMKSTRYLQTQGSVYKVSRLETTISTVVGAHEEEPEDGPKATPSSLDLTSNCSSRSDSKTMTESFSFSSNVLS

Turning to `CNc1ccc(-c2ccccc2C)c(N(C)C(=O)C(C)(C)c2cc(C(F)(F)F)cc(C(F)(F)F)c2)c1` [Example 20, 2-(3,5-Bis-trifluoromethyl-phenyl)-N-methyl-N-(2′-methyl-4-methylamino-biphenyl-2-yl)-isobutyramide], the Ki on human NK-1 receptor is 9.77 nM.
In the case of `Cc1ccccc1-c1cc(N2CCN(C)CC2)ccc1C(=O)N(C)Cc1cc(C(F)(F)F)cc(C(F)(F)F)c1` [Example 27, 2′-Methyl-5-(4-methyl-piperazin-1-yl)-biphenyl-2-carboxylic acid (3,5-bis-trifluoromethyl-benzyl)-methyl-amide], the Ki at human NK-1 receptor is 1.45 nM.
As for `CN(Cc1cc(Cl)cc(Cl)c1)C(=O)c1ccccc1-c1ccccc1` [Example 2, Biphenyl-2-carboxylic acid (3,5-dichloro-benzyl)-methyl-amide], the melting point was 126 to 128 °C.
The compound `Cc1cc(CN(C)C(=O)c2ccccc2-c2ccccc2)cc(C(F)(F)F)c1` [Example 3, Biphenyl-2-carboxylic acid methyl-(3-methyl-5-trifluoromethyl-benzyl)-amide] showed a melting point of 126.7 to 127.1 °C.
Regarding `Cc1ccccc1-c1ccc(N)cc1N(C)C(=O)C(C)(C)c1cc(C(F)(F)F)cc(C(F)(F)F)c1` [Example 18, N-(4-Amino-2′-methyl-biphenyl-2-yl)-2-(3,5-bis-trifluoromethyl-phenyl)-N-methyl-isobutyramide], on human NK-1 receptor, the Ki was 5.25 nM.

The term melting point denotes the temperature, or range, at which the solid turns liquid.
